These results are taken from patent US11479533B2, “Inhibitors of Rho associated coiled-coil containing protein kinase” (KADMON CORPORATION, LLC, priority 2017, dated 2022).

Experiment [1] has as its target recombinant ROCK2 (amino acids 1-552) (Homo sapiens (Human), UniProt O75116). The experiment is described as follows: Z'-lyte kinase assay, ROCK2. Type of experiment: biochemical. As to conditions: for inhibition at 0.5 µM: read-out: ROCK2 % inh (0.5 μM). As for the experimental part: (§1) Determination of compounds ROCK inhibitory activity in vitro (Z'lyte assay): recombinant ROCK1 (amino acids 1-535) and ROCK2 (amino acids 1-552) proteins were purchased from ThermoFisher Scientific. Compounds activities were measured by Z'-lyte kinase kit (ThermoFisher Scientific) and IC50s were calculated.
(§2) Compounds activities were measured by Z'-lyte kinase kit (ThermoFisher Scientific). […] IC50s were calculated using the GraphPad Prism software with kinase activities data that were collected from 9 points serial dilution of compounds treatment. The ROCK inhibition in A7R5 cells and NIH3T3 (Acta2-Luc) cells was performed as described above.
(§3) The percent inhibition rate was calculated by normalizing the kinase activity value obtained with compound treatment against DMSO control value and then applied to the equation, […]. IC50's were calculated using the nonlinear regression curve fit function of the GraphPad Prism software with kinase activities data measured with 9 points 2-fold serial dilution of compounds treatment.

The target in experiment [2] is recombinant ROCK1 (amino acids 1-535) (Homo sapiens (Human), UniProt Q13464). The experiment is described as follows: Z'-lyte kinase assay, ROCK1. The experiment is classed as biochemical. The note with it: for inhibition at 0.5 µM: read-out: ROCK1 % inh (0.5 μM). How it is done:
as §1, §2, §3

The subject of experiment [3] is ppMlc (T18/S19) levels in A7R5 cells. The experiment is described as follows: A7R5 in-cell ELISA assay (ppMlc). Type of experiment: cell-based, rat. As for the experimental part: Determination of compounds ROCK inhibitory activity in A7R5 cells: rat aortic smooth muscle cell line A7R5 cells were maintained and treated in DMEM medium with 10% of fetal bovine serum. Cells were seeded with density of 5,000 cells/well in 96-well plates for 24 hours and subsequently treated 90 min with testing compounds. Cells were then fixed and processed according to the In-Cell ELISA Colorimetric Detection Kit manual (Thermo Scientific).
A7R5 cells were treated with 9 points 2 fold serial dilution of compounds and ppMlc (T18/S19) levels were determined in order to calculate the cellular IC50s of the compounds.
An A7R5 in-cell ELISA assay was performed to determine ROCK inhibition of test articles. A7R5 cells were treated with 9 points 2-fold serial dilution of compounds and ppMlc (T18/S19) levels were determined to calculate cellular IC50 values of the compounds. […] A7R5 cells were treated with 9 points 2-fold serial dilution of compounds and ppMlc (T18/S19) levels were determined to calculate cellular IC50 values of the compounds using the nonlinear regression curve fit function of the GraphPad Prism software.

The subject of experiment [4] is ACTA2-promoter-driven-luciferase in NIH3T3 cells. The experiment is described as follows: NIH3T3 Acta2-promoter driven-luciferase assay. The note with it: Mus musculus, plus TGFβ1, 24 hr, read-out: NIH3T3, Acta2-luc, IC50. Type of experiment: cell-based. How it is done:
NIH3T3 cells Acta2-promoter driven-luciferase assay: A NIH3T3 cell line stably expressing a luciferase reporter driven by the human ACTA2 gene promoter (−1000-1 bp) was established (NIH3T3-Acta2-luciferase). The cells were plated to confluence and treated with the test compounds plus TGFβ1 for 24 hr. Cells were then lysed and luciferase activity was measured using the LightSwitch luciferase kit from Active Motif.
ROCK inhibitors can be effectively rank ordered by ACTA2-promoter-driven-luciferase reporter cell assay. NIH3T3 cells stably expressing ACTA2-promoter-driven-luciferase were applied to measure ROCK compounds functional IC50's in cells. Cells were plated in 96 well plates to confluence and treated with 9 points serial dilution of compounds in combination with TGFβ1 for 24 hr. Luciferase activities were measured and compound's IC50's were calculated using the nonlinear regression curve fit function of the GraphPad Prism software. Compounds of the invention gave in cell IC50's under 200 nM, see FIG. 1c.

Setting [5] is: Rattus norvegicus, A7R5, A7R5 cells, Table 2, read-out: pMLC IC50 (nM) A7R5.

Where two headings read alike, the source gives them in different places. Bounds are passed on as bounds.

Sequence of recombinant ROCK1 (amino acids 1-535) (Q13464 1-535): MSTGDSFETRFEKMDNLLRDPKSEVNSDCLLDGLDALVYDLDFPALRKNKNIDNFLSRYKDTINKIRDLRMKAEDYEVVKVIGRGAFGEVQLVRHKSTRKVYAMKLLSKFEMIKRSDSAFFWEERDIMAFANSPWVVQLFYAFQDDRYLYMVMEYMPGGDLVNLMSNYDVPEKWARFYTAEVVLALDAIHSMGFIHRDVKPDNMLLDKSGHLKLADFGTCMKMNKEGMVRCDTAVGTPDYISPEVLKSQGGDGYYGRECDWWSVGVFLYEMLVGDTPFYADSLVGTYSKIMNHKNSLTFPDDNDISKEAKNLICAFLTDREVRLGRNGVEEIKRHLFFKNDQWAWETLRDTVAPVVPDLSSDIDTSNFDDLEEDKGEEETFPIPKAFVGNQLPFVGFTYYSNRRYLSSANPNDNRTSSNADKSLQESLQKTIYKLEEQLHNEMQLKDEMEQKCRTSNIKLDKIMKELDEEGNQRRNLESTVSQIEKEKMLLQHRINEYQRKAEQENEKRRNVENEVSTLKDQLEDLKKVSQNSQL
Sequence of recombinant ROCK2 (amino acids 1-552) (O75116 1-552): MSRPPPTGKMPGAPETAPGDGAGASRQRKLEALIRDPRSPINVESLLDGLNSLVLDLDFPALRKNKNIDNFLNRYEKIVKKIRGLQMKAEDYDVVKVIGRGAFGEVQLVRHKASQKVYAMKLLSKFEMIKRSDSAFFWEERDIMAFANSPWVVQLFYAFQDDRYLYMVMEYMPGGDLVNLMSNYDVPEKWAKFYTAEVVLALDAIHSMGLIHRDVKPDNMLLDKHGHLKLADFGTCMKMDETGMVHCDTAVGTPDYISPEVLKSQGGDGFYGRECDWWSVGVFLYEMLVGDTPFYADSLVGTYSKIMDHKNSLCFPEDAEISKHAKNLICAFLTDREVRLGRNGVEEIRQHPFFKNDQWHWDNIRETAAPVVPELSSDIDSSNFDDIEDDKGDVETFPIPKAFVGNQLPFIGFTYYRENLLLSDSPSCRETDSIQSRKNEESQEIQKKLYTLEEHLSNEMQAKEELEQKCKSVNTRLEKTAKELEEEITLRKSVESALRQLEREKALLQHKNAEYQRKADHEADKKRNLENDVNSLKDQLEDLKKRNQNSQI

Turning to `CNC(C(=O)Nc1ccc(-c2cn[nH]c2)cc1)c1ccccc1OC` (stereo not drawn) [Example 8, N-(4-(1H-pyrazol-4-yl)phenyl)-2-(2-methoxyphenyl)-2-(methylamino)acetamide], the IC50 in experiment [1] was found to be 3 nM; in experiment [2], 12 nM; in experiment [3] (setting [5]) it was 517 nM; in experiment [3] (Rattus norvegicus, A7R5, A7R5 cells, ppMlc (T18/S19), in-cell ELISA, read-out: ppMlc IC50) it was 517 nM.

Consider `CNC(C(=O)Nc1ccc(-c2cn[nH]c2)cc1)c1cccc(F)c1` (stereo not drawn) [Example 18, N-(4-(1H-pyrazol-4-yl)phenyl)-2-(3-fluorophenyl)-2-(methylamino)acetamide], for which the results for the IC50 in experiment [1], in experiment [3] (setting [5]) and in experiment [4] were 10 nM, 504 nM and 464 nM, respectively. The inhibition at 0.5 µM in experiment [1] stood at 89%; in experiment [2], 92%.

In the case of `CNC(C(=O)Nc1ccc(-c2cn[nH]c2)cc1)c1ccc(F)cc1` (stereo not drawn) [Example 19, N-(4-(1H-pyrazol-4-yl)phenyl)-2-(4-fluorophenyl)-2-(methylamino)acetamide], the IC50 in experiment [1] turned out to be 4.8 nM; in experiment [3] (setting [5]), 355 nM; in experiment [4], 190 nM. Further, the inhibition at 0.5 µM in experiment [1] was found to be 90%; in experiment [2] it was 96%.

Consider `CNC(C(=O)Nc1ccc(-c2cn[nH]c2)cc1)c1cccc(Cl)c1` (stereo not drawn) [Example 20, N-(4-(1H-pyrazol-4-yl)phenyl)-2-(3-chlorophenyl)-2-(methylamino)acetamide], for which the IC50 in experiment [1] worked out at 1.7 nM; in experiment [3] (setting [5]) it was 263 nM; in experiment [4], 157 nM. Further, the results for the inhibition at 0.5 µM in experiment [1] and in experiment [2] were 94% and 98%, respectively.

In the case of `CNC(C(=O)Nc1ccc(-c2cn[nH]c2)cc1)c1cccc(OC(F)F)c1` (stereo not drawn) [Example 24, N-(4-(1H-pyrazol-4-yl)phenyl)-2-(3-(difluoromethoxy)phenyl)-2-(methylamino)acetamide], the IC50 in experiment [1] came out at 22 nM; in experiment [2] it was 88 nM; in experiment [3] (setting [5]), 334 nM; in experiment [4], 1710 nM. Further, the inhibition at 0.5 µM in experiment [1] is 97%.

As for `CNC(C(=O)Nc1ccc(-c2cn[nH]c2)cc1)c1ccc2c(C)n[nH]c2c1` (stereo not drawn) [Example 33, N-(4-(1H-pyrazol-4-yl)phenyl)-2-(3-methyl-1H-indazol-6-yl)-2-(methylamino)acetamide], the IC50 was 29 nM in experiment [1], 85 nM in experiment [2], 913 nM in experiment [3] (setting [5]) and 1480 nM in experiment [4].

Take `COCCNC(C(=O)Nc1ccc(-c2cn[nH]c2)c(OC)c1)c1cccc(OC)c1` (stereo not drawn) [Example 56, N-(3-methoxy-4-(1H-pyrazol-4-yl)phenyl)-2-((2-methoxyethyl)amino)-2-(3-methoxyphenyl)acetamide]: the results for the IC50 in experiment [1], in experiment [3] (setting [5]) and in experiment [4] were 5.3 nM, 115 nM and 78 nM, respectively.

Take `COc1cccc(C(NCCN(C)C)C(=O)Nc2ccc(-c3cn[nH]c3)cc2)c1` (stereo not drawn) [Example 57, N-(4-(1H-pyrazol-4-yl)phenyl)-2-((2-(dimethylamino)ethyl)amino)-2-(3-methoxyphenyl)acetamide]: the IC50 in experiment [1] amounted to 10 nM; in experiment [3] (setting [5]), 74 nM; in experiment [4], 175 nM.

Turning to `COCCN[C@@H](C(=O)Nc1ccc(-c2cn[nH]c2)cc1)c1cccc(OC)c1` [Example 58, (R)—N-(4-(1H-pyrazol-4-yl)phenyl)-2-((2-methoxyethyl)amino)-2-(3-methoxyphenyl)acetamide], the IC50 in experiment [1] turned out to be 12 nM; in experiment [2], 57 nM; in experiment [3] (setting [5]) it was 484 nM; in experiment [4], 74 nM.

As for `COCCN[C@H](C(=O)Nc1ccc(-c2cn[nH]c2)cc1)c1cccc(OC)c1` [Example 59, (S)—N-(4-(1H-pyrazol-4-yl)phenyl)-2-((2-methoxyethyl)amino)-2-(3-methoxyphenyl)acetamide], the IC50 in experiment [1] was 239 nM; in experiment [2] it was 759 nM; in experiment [3] (A7R5 cells, Table 2, read-out: pMLC IC50 (nM) A7R5), 5550 nM; in experiment [3] (setting [5]) it was 4170 nM; in experiment [4], over 5000 nM.

Turning to `COc1cccc([C@H](NCCN(C)C)C(=O)Nc2ccc(-c3cn[nH]c3)cc2)c1` [Example 60, (S)—N-(4-(1H-pyrazol-4-yl)phenyl)-2-((2-(dimethylamino)ethyl)amino)-2-(3-methoxyphenyl)acetamide], the IC50 in experiment [1] came out at 98 nM; in experiment [2] it was 258 nM; in experiment [3] (setting [5]), 695 nM; in experiment [4] it was 1410 nM.

Turning to `COc1cccc([C@@H](NCCN(C)C)C(=O)Nc2ccc(-c3cn[nH]c3)cc2)c1` [Example 61, (R)—N-(4-(1H-pyrazol-4-yl)phenyl)-2-((2-(dimethylamino)ethyl)amino)-2-(3-methoxyphenyl)acetamide], the IC50 was 2.9 nM in experiment [1], 7.7 nM in experiment [2], 35 nM in experiment [3] (setting [5]) and 48 nM in experiment [4].

Consider `CN[C@H](C(=O)Nc1ccc(-c2cn[nH]c2)cc1)c1ccc(Cl)cc1` [Example 64, (S)—N-(4-(1H-pyrazol-4-yl)phenyl)-2-(4-chlorophenyl)-2-(methylamino)acetamide], for which the IC50 is 24 nM in experiment [1], 379 nM in experiment [3] (setting [5]) and 227 nM in experiment [4].

On to `CN[C@@H](C(=O)Nc1ccc(-c2cn[nH]c2)cc1)c1ccc(Cl)cc1` [Example 65, (R)—N-(4-(1H-pyrazol-4-yl)phenyl)-2-(4-chlorophenyl)-2-(methylamino)acetamide], for which the IC50 came out at 1.2 nM in experiment [1], 65 nM in experiment [3] (setting [5]) and 51 nM in experiment [4].

On to `CNC(=O)c1cccc(C(NC)C(=O)Nc2ccc(-c3cn[nH]c3)cc2)c1` (stereo not drawn) [Example 67, 3-(2-((4-(1H-pyrazol-4-yl)phenyl)amino)-1-(methylamino)-2-oxoethyl)-N-methylbenzamide], for which the IC50 in experiment [1] is 1.9 nM; in experiment [3] (setting [5]), 269 nM; in experiment [4], 296 nM.

For the molecule `CNC(C(=O)Nc1ccc(-c2cn[nH]c2)cc1)c1ccc(C(=O)O)cc1` (stereo not drawn) [Example 68, 4-(2-((4-(1H-pyrazol-4-yl)phenyl)amino)-1-(methylamino)-2-oxoethyl)benzoic acid], the results for the IC50 in experiment [1], in experiment [3] (setting [5]) and in experiment [4] were 451 nM, over 5000 nM and over 5000 nM, respectively.

As to `CNC(=O)c1ccc(C(NC)C(=O)Nc2ccc(-c3cn[nH]c3)cc2)cc1` (stereo not drawn) [Example 69, 4-(2-((4-(1H-pyrazol-4-yl)phenyl)amino)-1-(methylamino)-2-oxoethyl)-N-methylbenzamide], the IC50 is 400 nM in experiment [1], over 5000 nM in experiment [3] (setting [5]) and over 5000 nM in experiment [4].

For the molecule `CNC(C(=O)Nc1cc(F)c(-c2cn[nH]c2)cc1OCCN(C)C)c1cccc(OC)c1` (stereo not drawn) [Example 71, N-(2-(2-(dimethylamino)ethoxy)-5-fluoro-4-(1H-pyrazol-4-yl)phenyl)-2-(3-methoxyphenyl)-2-(methylamino)acetamide], the IC50 in experiment [1] stood at 3 nM; in experiment [3] (setting [5]) it was 57 nM; in experiment [4], 301 nM.

For the molecule `CN[C@@H](C(=O)Nc1cc(F)c(-c2cn[nH]c2)cc1OCCN(C)C)c1cccc(OC)c1` [Example 72, (R)—N-(2-(2-(dimethylamino)ethoxy)-5-fluoro-4-(1H-pyrazol-4-yl)phenyl)-2-(3-methoxyphenyl)-2-(methylamino)acetamide], the IC50 came to 46 nM in experiment [1], 382 nM in experiment [3] (setting [5]) and 984 nM in experiment [4].

As to `CN[C@H](C(=O)Nc1cc(F)c(-c2cn[nH]c2)cc1OCCN(C)C)c1cccc(OC)c1` [Example 73, (S)—N-(2-(2-(dimethylamino)ethoxy)-5-fluoro-4-(1H-pyrazol-4-yl)phenyl)-2-(3-methoxyphenyl)-2-(methylamino)acetamide], the values for the IC50 in experiment [1], in experiment [3] (setting [5]) and in experiment [4] were 1.6 nM, 15 nM and 122 nM, respectively.
